Results from PMC11721672, “Design, Structure–Activity Relationships, and Computational Modeling Studies of a Series of α-Helix Biased, Ultra-Short Glucagon-like Peptide-1 Receptor Agonists” (Molecules, 2024).
Read-outs that look alike come from different tables or passages of the source. Square brackets hold non-standard residues; d marks the D form. Peptide text beside a SMILES is read from it. Bip = N[C@@H](Cc1ccc(-c2ccccc2)cc1)C(=O)O; αMePhe(2-F) = C[C@](N)(Cc1ccccc1F)C(=O)O; Phe(2-F) = N[C@@H](Cc1ccccc1F)C(=O)O; Aib = CC(C)(N)C(=O)O

Target: T1, hGLP1 receptor (Homo sapiens, UniProt P43220)
T1 construct: expressed in transfected cells; host or cells: HEK (human embryonic kidney) cells co-expressing hGLP1 receptor and CRE-Luciferase
T1 sequence (P43220 24-463): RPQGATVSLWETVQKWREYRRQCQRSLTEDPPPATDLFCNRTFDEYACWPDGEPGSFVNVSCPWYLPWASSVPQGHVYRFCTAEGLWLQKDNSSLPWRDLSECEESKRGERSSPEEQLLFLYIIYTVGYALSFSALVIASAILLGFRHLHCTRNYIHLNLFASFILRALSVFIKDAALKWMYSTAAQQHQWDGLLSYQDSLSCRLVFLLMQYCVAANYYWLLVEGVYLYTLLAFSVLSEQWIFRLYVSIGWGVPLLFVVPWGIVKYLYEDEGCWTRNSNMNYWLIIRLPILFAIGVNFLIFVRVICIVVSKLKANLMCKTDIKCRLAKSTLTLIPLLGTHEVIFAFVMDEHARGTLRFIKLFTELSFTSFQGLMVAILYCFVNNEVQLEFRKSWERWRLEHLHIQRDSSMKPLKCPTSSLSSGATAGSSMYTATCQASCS
Assay: GLP-1 receptor agonism assay (HTRF cAMP, HEK cells co-expressing hGLP1 receptor and CRE-Luciferase)
Type: cell-based
Conditions: for Emax: HEK293, Table 6 potency profile; for EC50 / dpEC50 (contribution of Cα-methylation) / pEC50: 0% HSA; for decreased potency by Aib substitution: Aib-scanning, versus parent analog RXL-101; for dpEC50 (contribution of Cα-methylation): dpEC50 = pEC50 (Aib) − pEC50 (Ala) − 0.97, Aib peptide versus the Ala peptide of the same line
Procedure: Human embryonic kidney cells (HEK) co-expressing the hGLP1 receptor and CRE-Luciferase construct were used to determine agonist potency in this assay. The cells were thawed briefly at 37 °C, transferred to a sterile tube, and re-suspended in complete media at 37 °C. Cells were centrifuged at 1000 rpm for 5 min and collected; the cells were then re-suspended in an assay buffer consisting of Dulbecco’s phosphate-buffered saline (DPBS, GIBCO) with 500 μM of the phosphodiesterase inhibitor 3-isobutyl-1-methylxanthine (IBMX). The assay medium had 0% serum albumin, as specified in Table 1, Table 2, Table 3 and Table 4. The optimal cell density was determined to be 1000 cells/well. Cells were added to wells in 384-well plates containing appropriate pre-prepared dilutions of compounds (test peptides or reference compound exendin-4), sealed, and incubated with CO2 for 30 min. Test peptide solutions were diluted from 10 mM stock solutions to be used in two separate runs (performed in triplicate) from a maximal concentration of 1.0 μM, with 11 concentrations tested for each peptide using serial 1:3 dilution from this maximal concentration. […] The agonist assay was a homogeneous time-resolved fluorescence (HTRF) assay (Cisbio). Following incubation of the cells for 30 min with test or reference peptides, 5 μL of the cAMP acceptor cAMP-d2, prepared previously as a working solution from frozen stock (1:20 dilution), was added to each well of the assay plate along with 5 μL of anti-cAMP antibody-cryptate working solution (diluted 1:20 from frozen stock). The wells were incubated for 1 h at room temperature, and fluorescence was then read at 665 and 615 nm with an Envision reader with a TRF laser. Data were saved and analyzed using Prism software (GraphPad). Concentration–response analysis was performed using 4-parameter logistic fits of the resulting data, and EC50 values were obtained for each test and reference compound.

[1] = Table 1, Phe6 modifications, average of two independent experiments in triplicate (RXL-3039 tested once), read-out: cAMP EC50
[2] = Table 3, Aib-scanning, >1000 nM = out of range, read-out: cAMP EC50
[3] = Table 2, Ala-scanning, >1000 nM = out of range, read-out: cAMP EC50

Structure (SMILES) | Emax [%] | EC50 [1] [nM] | EC50 [3] [nM] | other results
C[C@@H](O)[C@H](NC(=O)CNC(=O)[C@H](CCC(=O)O)NC(=O)C(C)(C)NC(=O)[C@@H](N)Cc1c[nH]cn1)C(=O)N[C@@H](Cc1cc(F)c(F)c(F)c1)C(=O)N[C@H](C(=O)N[C@@H](CO)C(=O)N[C@@H](CC(=O)O)C(=O)N[C@@H](Cc1ccc(-c2ccccc2)cc1)C(=O)N[C@@H](Cc1ccc(-c2ccccc2)cc1)C(N)=O)[C@@H](C)O [RXL-3017, His-Aib-Glu-Gly-Thr-Phe(3,4,5-F)-Thr-Ser-Asp-Bip-Bip-NH2] | 113 | 7.2 | – | –
C[C@@H](O)[C@H](NC(=O)CNC(=O)[C@H](CCC(=O)O)NC(=O)C(C)(C)NC(=O)[C@@H](N)Cc1c[nH]cn1)C(=O)NC(C)(C)C(=O)N[C@H](C(=O)N[C@@H](CO)C(=O)N[C@@H](CC(=O)O)C(=O)N[C@@H](Cc1ccc(-c2ccccc2)cc1)C(=O)N[C@@H](Cc1ccc(-c2ccccc2)cc1)C(N)=O)[C@@H](C)O [RXL-3028, His-Aib-Glu-Gly-Thr-Aib-Thr-Ser-Asp-Bip-Bip-NH2] (H-H[Aib]EGT[Aib]TSD[Bip][Bip]-NH2) | 76.1 | – | – | rescue of potency by Aib versus Ala substitution (Aib analog versus Ala analog at the same position): more than 10 fold; decreased potency by Aib substitution: ≥ 100 fold; EC50 [2]: 161 nM; EC50 (Table 4, Aib-scan peptides, read-out: pEC50 (converted)): 105 nM; dpEC50 (contribution of Cα-methylation): 0.46
C[C@@H](O)[C@H](NC(=O)CNC(=O)[C@H](CCC(=O)O)NC(=O)C(C)(C)NC(=O)[C@@H](N)Cc1c[nH]cn1)C(=O)N[C@@H](CCc1ccccc1)C(=O)N[C@H](C(=O)N[C@@H](CO)C(=O)N[C@@H](CC(=O)O)C(=O)N[C@@H](Cc1ccc(-c2ccccc2)cc1)C(=O)N[C@@H](Cc1ccc(-c2ccccc2)cc1)C(N)=O)[C@@H](C)O [RXL-3019, His-Aib-Glu-Gly-Thr-hPhe-Thr-Ser-Asp-Bip-Bip-NH2] | 110 | 16 | – | –
C[C@@H](O)[C@H](NC(=O)CNC(=O)C(C)(C)NC(=O)C(C)(C)NC(=O)[C@@H](N)Cc1c[nH]cn1)C(=O)N[C@@](C)(Cc1ccccc1F)C(=O)N[C@H](C(=O)N[C@@H](CO)C(=O)N[C@@H](CC(=O)O)C(=O)N[C@@H](Cc1ccc(-c2ccccc2)cc1)C(=O)N[C@@H](Cc1ccc(-c2ccccc2)cc1)C(N)=O)[C@@H](C)O [RXL-3031, His-Aib-Aib-Gly-Thr-α-Me-Phe(2-F)-Thr-Ser-Asp-Bip-Bip-NH2] (H-H[Aib][Aib]GT[αMePhe(2-F)]TSD[Bip][Bip]-NH2) | 121 | – | – | pEC50 (Table 4, Aib-scan peptides): 8.31; dpEC50 (contribution of Cα-methylation): −1.13
C[C@H](NC(=O)[C@H](CCC(=O)O)NC(=O)C(C)(C)NC(=O)[C@@H](N)Cc1c[nH]cn1)C(=O)N[C@H](C(=O)N[C@@H](Cc1ccccc1F)C(=O)N[C@H](C(=O)N[C@@H](CO)C(=O)N[C@@H](CC(=O)O)C(=O)N[C@@H](Cc1ccc(-c2ccccc2)cc1)C(=O)N[C@@H](Cc1ccc(-c2ccccc2)cc1)C(N)=O)[C@@H](C)O)[C@@H](C)O [RXL-3037, His-Aib-Glu-Ala-Thr-Phe(2-F)-Thr-Ser-Asp-Bip-Bip-NH2] (H-H[Aib]EAT[Phe(2-F)]TSD[Bip][Bip]-NH2) | 73.8 | – | 210 | pEC50 (Table 4, Ala-scan peptides): 6.46; decreased potency (Aib/Ala comparison) (versus respective parent analog): 2000 fold
C[C@@H](O)[C@H](NC(=O)CNC(=O)[C@H](CCC(=O)O)NC(=O)C(C)(C)NC(=O)[C@@H](N)Cc1c[nH]cn1)C(=O)N[C@@](C)(Cc1ccccc1F)C(=O)NC(C)(C)C(=O)N[C@@H](CO)C(=O)N[C@@H](CC(=O)O)C(=O)N[C@@H](Cc1ccc(-c2ccccc2)cc1)C(=O)N[C@@H](Cc1ccc(-c2ccccc2)cc1)C(N)=O [RXL-3034, His-Aib-Glu-Gly-Thr-α-Me-Phe(2-F)-Aib-Ser-Asp-Bip-Bip-NH2] (H-H[Aib]EGT[αMePhe(2-F)][Aib]SD[Bip][Bip]-NH2) | 106 | – | – | decreased potency by Aib substitution: ≥ 100 fold; pEC50 (Table 4, Aib-scan peptides): 7.04; dpEC50 (contribution of Cα-methylation): −1.60; decreased potency of Aib analog versus Ala analog (same position, Ala superior to Aib): about 10 fold
C[C@H](N)C(=O)NC(C)(C)C(=O)N[C@@H](CCC(=O)O)C(=O)NCC(=O)N[C@H](C(=O)N[C@@H](Cc1ccccc1F)C(=O)N[C@H](C(=O)N[C@@H](CO)C(=O)N[C@@H](CC(=O)O)C(=O)N[C@@H](Cc1ccc(-c2ccccc2)cc1)C(=O)N[C@@H](Cc1ccc(-c2ccccc2)cc1)C(N)=O)[C@@H](C)O)[C@@H](C)O [RXL-3001, Ala-Aib-Glu-Gly-Thr-Phe(2-F)-Thr-Ser-Asp-Bip-Bip-NH2] | 108 | – | 21.9 | –
C[C@@H](O)[C@H](NC(=O)CNC(=O)[C@H](CCC(=O)O)NC(=O)C(C)(C)NC(=O)[C@@H](N)Cc1c[nH]cn1)C(=O)N[C@@H](Cc1ccccc1)C(=O)N[C@H](C(=O)N[C@@H](CO)C(=O)N[C@@H](CC(=O)O)C(=O)N[C@@H](Cc1ccc(-c2ccccc2)cc1)C(=O)N[C@@H](Cc1ccc(-c2ccccc2)cc1)C(N)=O)[C@@H](C)O [RXL-100, His-Aib-Glu-Gly-Thr-Phe-Thr-Ser-Asp-Bip-Bip-NH2] | 110 | 0.5 | 0.5 | EC50 [2]: 0.5 nM
C[C@@H](O)[C@H](NC(=O)CNC(=O)[C@H](CCC(=O)O)NC(=O)C(C)(C)NC(=O)[C@@H](N)Cc1c[nH]cn1)C(=O)N[C@@H](Cc1c(F)c(F)c(F)c(F)c1F)C(=O)N[C@H](C(=O)N[C@@H](CO)C(=O)N[C@@H](CC(=O)O)C(=O)N[C@@H](Cc1ccc(-c2ccccc2)cc1)C(=O)N[C@@H](Cc1ccc(-c2ccccc2)cc1)C(N)=O)[C@@H](C)O [RXL-3018, His-Aib-Glu-Gly-Thr-Phe(2,3,4,5,6-F)-Thr-Ser-Asp-Bip-Bip-NH2] | 102 | 0.3 | – | GLP-1R agonist potency relative to RXL-3000 (versus RXL-3000): threefold less potent
C[C@@H](O)[C@H](NC(=O)CNC(=O)[C@H](CCC(=O)O)NC(=O)C(C)(C)NC(=O)[C@@H](N)Cc1c[nH]cn1)C(=O)N[C@@H](Cc1cccc(C(F)(F)F)c1)C(=O)N[C@H](C(=O)N[C@@H](CO)C(=O)N[C@@H](CC(=O)O)C(=O)N[C@@H](Cc1ccc(-c2ccccc2)cc1)C(=O)N[C@@H](Cc1ccc(-c2ccccc2)cc1)C(N)=O)[C@@H](C)O [RXL-3016, His-Aib-Glu-Gly-Thr-Phe(3-CF3)-Thr-Ser-Asp-Bip-Bip-NH2] | 109 | 13.9 | – | –
C[C@@H](O)[C@H](NC(=O)CNC(=O)[C@H](CCC(=O)O)NC(=O)C(C)(C)NC(=O)[C@@H](N)Cc1c[nH]cn1)C(=O)N[C@@H](Cc1ccccc1F)C(=O)N[C@H](C(=O)N[C@@H](CO)C(=O)N[C@@H](CC(=O)O)C(=O)N[C@@H](Cc1ccc(-c2ccccc2)cc1)C(=O)N[C@@H](Cc1ccc(-c2ccccc2)cc1)C(N)=O)[C@@H](C)O [RXL-3000, His-Aib-Glu-Gly-Thr-Phe(2-F)-Thr-Ser-Asp-Bip-Bip-NH2] | 109 | 0.1 | 0.1 | EC50 [2]: 0.1 nM; GLP-1R agonist potency greater versus the parent peptide RXL-100 (versus RXL-100): approximately fivefold
C[C@@H](O)[C@H](NC(=O)CNC(=O)[C@H](CCC(=O)O)NC(=O)C(C)(C)NC(=O)[C@@H](N)Cc1c[nH]cn1)C(=O)N[C@@](C)(Cc1ccccc1F)C(=O)N[C@H](C(=O)NC(C)(C)C(=O)N[C@@H](CC(=O)O)C(=O)N[C@@H](Cc1ccc(-c2ccccc2)cc1)C(=O)N[C@@H](Cc1ccc(-c2ccccc2)cc1)C(N)=O)[C@@H](C)O [RXL-3035, His-Aib-Glu-Gly-Thr-α-Me-Phe(2-F)-Thr-Aib-Asp-Bip-Bip-NH2] (H-H[Aib]EGT[αMePhe(2-F)]T[Aib]D[Bip][Bip]-NH2) | 79.1 | – | – | decreased potency by Aib substitution: ≥ 100 fold; dpEC50 (contribution of Cα-methylation): −2.80
C[C@H](NC(=O)[C@H](CO)NC(=O)[C@@H](NC(=O)[C@H](Cc1ccccc1F)NC(=O)[C@@H](NC(=O)CNC(=O)[C@H](CCC(=O)O)NC(=O)C(C)(C)NC(=O)[C@@H](N)Cc1c[nH]cn1)[C@@H](C)O)[C@@H](C)O)C(=O)N[C@@H](Cc1ccc(-c2ccccc2)cc1)C(=O)N[C@@H](Cc1ccc(-c2ccccc2)cc1)C(N)=O [RXL-3007, His-Aib-Glu-Gly-Thr-Phe(2-F)-Thr-Ser-Ala-Bip-Bip-NH2] (H-H[Aib]EGT[Phe(2-F)]TSA[Bip][Bip]-NH2) | 132 | – | 14 | EC50 (Table 4, Ala-scan peptides, read-out: pEC50 (converted)): 4.79 nM
C[C@@H](O)[C@H](NC(=O)CNC(=O)[C@H](CCC(=O)O)NC(=O)C(C)(C)NC(=O)[C@@H](N)Cc1c[nH]cn1)C(=O)N[C@H](Cc1ccccc1)C(=O)N[C@H](C(=O)N[C@@H](CO)C(=O)N[C@@H](CC(=O)O)C(=O)N[C@@H](Cc1ccc(-c2ccccc2)cc1)C(=O)N[C@@H](Cc1ccc(-c2ccccc2)cc1)C(N)=O)[C@@H](C)O [RXL-3022, His-Aib-Glu-Gly-Thr-D-Phe-Thr-Ser-Asp-Bip-Bip-NH2] | 101 | 23.2 | – | –
